From ChEMBL document CHEMBL4706491, “Discovery of novel N-sulfonamide-tetrahydroquinolines as potent retinoic acid receptor-related orphan receptor γt inverse agonists for the treatment of autoimmune diseases” (Eur J Med Chem, 2020)

Legend:
[1] = molecular target: T1, Nuclear receptor ROR-gamma (Homo sapiens, UniProt P51449)
T1 sequence (P51449 whole entry): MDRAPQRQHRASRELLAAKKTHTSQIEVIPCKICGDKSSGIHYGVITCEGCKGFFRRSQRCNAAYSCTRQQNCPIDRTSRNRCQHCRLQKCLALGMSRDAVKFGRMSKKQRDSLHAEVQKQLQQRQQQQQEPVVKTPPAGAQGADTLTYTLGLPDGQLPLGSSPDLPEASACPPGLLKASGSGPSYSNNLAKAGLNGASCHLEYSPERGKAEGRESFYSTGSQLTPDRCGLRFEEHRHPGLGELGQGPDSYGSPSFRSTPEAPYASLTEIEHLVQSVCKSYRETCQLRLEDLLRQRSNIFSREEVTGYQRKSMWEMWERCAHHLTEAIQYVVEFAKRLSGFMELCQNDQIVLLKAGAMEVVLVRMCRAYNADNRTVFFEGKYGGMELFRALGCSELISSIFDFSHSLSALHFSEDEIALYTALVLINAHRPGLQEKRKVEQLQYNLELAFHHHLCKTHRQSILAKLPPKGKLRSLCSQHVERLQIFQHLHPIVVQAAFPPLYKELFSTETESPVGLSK

[2] = molecular target: T1, Nuclear receptor ROR-gamma; experiment: Agonist activity at APC-labeled RORgammat LBD (unknown origin) incubated for 1 hr in presence of europium-labeled co-activator SRC1 by FRET assay
in vitro [3] = conditions: CD-1, mouse, liver
[4] = Half life in CD-1 mouse liver microsomes at 1 uM measured up to 60 mins in presence of NADPH by LC-MS/MS analysis
in vitro [5] = conditions: CD-1, mouse, liver microsomes

| Structure (SMILES) | XC50 [1] [nM] | also measured |
| --- | --- | --- |
| CC(=O)N1CCN(c2ccc3c(c2)CCCN3S(=O)(=O)N(C)Cc2ccccc2Cl)CC1 | 86 |  |
| CC(=O)N1CCN(c2ccc3c(c2)CCCN3S(=O)(=O)N(C)Cc2ccccc2C)CC1 | 143 |  |
| CC(=O)N1CCN(c2ccc3c(c2)CCCN3S(=O)(=O)N(C)Cc2cccc(C)c2)CC1 | 768 |  |
| CC(=O)N1CCN(c2ccc3c(c2)CCCN3S(=O)(=O)CCc2ccccc2)CC1 | 906 |  |
| CC(=O)N1CCN(c2ccc3c(c2)CCCN3S(=O)(=O)c2ccccc2)CC1 |  | EC50 [2]: 4840 nM |
| CC(=O)N1CCN(c2ccc3c(c2)CCCN3S(=O)(=O)N(C)Cc2cccc(Cl)c2)CC1 | 104 |  |
| CC(=O)N1CCN(c2ccc(CN(C3CCC3)S(=O)(=O)Cc3ccccc3)cc2)CC1 |  | CLint scaled at 1 h, 1 µM (in vitro [3]): 2420 mL/min/kg; half-life at 1 h, 1 µM [4]: 2.3 min; microsomal CLint at 1 h, 1 µM (in vitro [5]): 612 µL/min/mg |
| CC(=O)N1CCN(c2ccc3c(c2)CCCN3S(=O)(=O)N(C)CCCc2ccccc2)CC1 | 7230 |  |
| CC(=O)N1CCN(c2ccc3c(c2)CCCN3S(=O)(=O)N(C)CCc2ccccc2)CC1 | 910 |  |
| CC(=O)N1CCN(c2ccc3c(c2)CCCN3S(=O)(=O)N(C)Cc2ccc(C(F)(F)F)cc2)CC1 | 1550 |  |
| CC(=O)N1CCN(c2ccc3c(c2)CCCN3S(=O)(=O)N(C)Cc2cccc(F)c2)CC1 | 324 |  |
